Where two headings read alike, the source gives them in different places.
Key:
Format in all cases: cell-based
[1] = tested on: MDA-MB-231(SA) breast cancer cells; test: WST-1 tetrazolium dye proliferation assay, MDA-MB-231(SA); settings: for inhibition at 1 µM: Homo sapiens, read-out: proliferation inhibitory effect compared with 0.1% DMSO vehicle control group; for proliferation inhibitory effect compared with Gemcitabine: relative to Gemcitabine (= 0), negative = less inhibition than Gemcitabine
Description: (§1) Determination of the ability of compound of formula (I) and combinations between compound of formula (I) and certain therapeutic compounds described herein to inhibit the proliferation of target cells was assayed in vitro against breast and prostate tumour cells.
(§2) MCF-7 and LNCaP cells were purchased from ATCC. MDA-MB-231(SA) cells were obtained from Professor Theresa Guise. PNT1A cells were purchased from ECACC. The cells were grown in a subconfluent condition to maintain a logarithmic growth phase. The cells were dislodged for passage using trypsin-EDTA.
(§3) The proliferation of the cell lines was evaluated by using the commercial WST-1 proliferation measurement reagent. Cells from exponentially growing cultures were plated on the 96 well plates at the appropriate seeding density in the optimal medium to give logarithmic growth over the course of the assay. The plates with MCF-7, MDA-MB-231(SA), PC3M and PNT1A cells were incubated 24h at 37°C in a humidified CO2 atmosphere to allow for recovery from trypsinization before adding of test and control compounds. 1mM stock solutions were prepared from test compounds in DMSO (dimethylsulfoxide) and stored at -20°C. Control compounds Ara-C and Gemcitabine stock solutions were prepared in sterile water. Each test and control compound was diluted twice the final concentration in appropriate media. Half of the final well volume of each dilution was added in six parallels to plates containing cells. Required volume of DMSO was added into the vehicle and control compound dilutions to achieve the final concentration of 0.1% DMSO in all control and test compound wells. The plates were returned to 37°C in a humified CO2 atmosphere and incubated for 5 days. WST-1 reagent (2-(4-Iodophenyl)-3-(4-nitrophenyl)-5-(2,4-disulfophenyl)-2H-tetrazolium) was added to each well according manufacturer's instructions and the plates were returned to 37°C in a humidified CO2 atmosphere for 2 hours. Following incubation the absorbance at a wavelength of 450nm was measured from each well using a multilabel counter. The absorbance at wavelength 450nm correlates linearly to number of viable cells in the well.
(§4) The means and standard deviations for parallel samples were calculated and plotted as a graph.

[2] = tested on: PC3M prostate cancer cells; test: WST-1 tetrazolium dye proliferation assay, PC3M; settings: for inhibition at 1 µM: Homo sapiens, PC-3M, 120 h, read-out: proliferation inhibitory effect compared with 0.1% DMSO vehicle control group; for proliferation inhibitory effect compared with Gemcitabine: relative to Gemcitabine (= 0)
Description: as §1, §2, §3, §4

[3] = tested on: PNT1A immortalized normal prostate cells; test: WST-1 tetrazolium dye proliferation assay, PNT1A normal cells; settings: Homo sapiens, 120 h, read-out: proliferation inhibitory effect compared with 0.1% DMSO vehicle control group
Description: as §1, §2, §3, §4

[4] = tested on: pancreatic cancer cells; test: Effect on pancreatic cancer cells (no method given); settings: other type of cancer cells such as pancreatic cancer cells
[5] = PNT1A immortalized normal prostate cell line, 5 days incubation, mean±SD, concentration not given (primary screen 1 microM)

Compound Nc1ccn([C@@H]2O[C@H](CO)[C@@H](O)[C@@H]2O)c(=O)n1 [Ara-C] has an inhibition at 1 µM ([1]; MDA-MB-231, 120 h) of 80.4 ± 2.5%, an inhibition at 1 µM [2] of 72.6 ± 3.5% and an inhibition at 1 µM [3, 5] of 66.5 ± 1.8%.

With O=c1[nH]c(=O)n([C@H]2C[C@H](O)[C@@H](CO)O2)cc1F [Floxuridine] the inhibition at 1 µM ([1]; 120 h, MDA-MB-231(SA), 5 days incubation, mean±SD, concentration not given (primary screen 1 microM)) was 82.4 ± 2.6%, the “proliferation inhibitory effect compared with Gemcitabine” value ([1]; MDA-MB-231(SA)) was -136.4±34.6% and the inhibition at 1 µM ([2]; PC3M, 5 days incubation, mean±SD, concentration not given (primary screen 1 microM)) was 78 ± 3.4%. For the same compound, the “proliferation inhibitory effect compared with Gemcitabine” value ([2]; PC3M) was 38.9±9.5% and the inhibition at 1 µM [3, 5] was 88.3 ± 0.6%.

In the case of Nc1ccn([C@@H]2O[C@H](CO)[C@@H](O)C2(F)F)c(=O)n1 [Gemcitabine, 2',2'-difluorodeoxycytidine], the inhibition at 1 µM ([1]; MDA-MB-231, 120 h) is reported as 93.3 ± 0.9%, the “proliferation inhibitory effect compared with Gemcitabine” value ([1]; MDA-MB-231(SA)) is reported as 0% and the inhibition at 1 µM [2] is reported as 67.5 ± 7.2%. The “proliferation inhibitory effect compared with Gemcitabine” value ([2]; PC3M) was 0% and the inhibition at 1 µM [3, 5] was 98.8 ± 0.3%.

In the case of CCSc1ncnc2c1ncn2[C@@H]1O[C@H](CO)[C@@H](O)[C@H]1O [Compound I, 6-(Ethylthio)inosine], the inhibition at 1 µM ([1]; MDA-MB-231, 120 h) is reported as 93.4 ± 1.3%, the “proliferation inhibitory effect compared with Gemcitabine” value ([1]; MDA-MB-231(SA)) is reported as 11.7±18.0% and the inhibition at 1 µM [2] is reported as 73.6 ± 5.5%. The “proliferation inhibitory effect compared with Gemcitabine” value ([2]; PC3M) was 26.6±15.4%, the inhibition at 1 µM ([3]; PNT1A) was 26.2 ± 7.7% and the “effect on pancreatic cancer cells” value [4] was “no effect was detected”.

In the case of Nc1ncnc2[nH]ncc12 [Compound A, 4-Aminopyrazolo[3,4-d]pyrimidine], the “proliferation inhibitory effect compared with Gemcitabine” value ([2]; PC3M) is reported as 70.1±2.7%.

Source: patent EP2711009A1, “Compounds for use in treating or preventing primary and metastatic breast and prostate cancer” (Institut Univ. de Ciència i Tecnologia, S.A., priority 2012, dated 2014)
